Like-named read-outs stand apart in the source and are kept apart here.
Experiments:
[1] = molecular target: T1, ACE-2 (Homo sapiens, UniProt Q9BYF1); experiment: ACE-2 Competitive Substrate Assay (ACS Assay); assay type: biochemical
T1 construct: a stop codon inserted after the serine immediately preceding the transmembrane domain; made in house; host or cells: CHO K1 cells (transient transfection, purified from conditioned medium)

[2] = molecular target: T2, Carboxypeptidase A (Bos taurus, UniProt P00730); experiment: Carboxypeptidase A activity assay; assay type: biochemical; settings: Ki class; compounds tested in 5% DMSO, 12 compound concentrations
T2 sequence (P00730 111-419): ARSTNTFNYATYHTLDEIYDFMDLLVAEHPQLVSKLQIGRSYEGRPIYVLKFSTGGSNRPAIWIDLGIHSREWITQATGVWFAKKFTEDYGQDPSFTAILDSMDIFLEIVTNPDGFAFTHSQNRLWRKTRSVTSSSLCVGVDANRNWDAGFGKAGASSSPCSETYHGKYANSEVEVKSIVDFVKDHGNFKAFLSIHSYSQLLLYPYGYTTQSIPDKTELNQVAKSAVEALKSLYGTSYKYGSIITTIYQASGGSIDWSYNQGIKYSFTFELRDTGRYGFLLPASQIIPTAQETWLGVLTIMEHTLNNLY
Procedure, shortened: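 Bovine carboxypeptidase A activity followed at 328 nm in 5% DMSO, reaction stopped with EDTA. Activity measured at 12 compound concentrations. Ki derived from apparent Ki as Ki=Kiapp/(1+[S]/Km).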

[3] = Pharmacokinetic profile in BBZDR rats (plasma samples); assay type: in vivo, rat (BBZDR); settings: 100 and 300 mg/kg/day oral gavage, 0-24 hours after dosing
Description: To determine the pharmacokinetic profile of Compound HE, plasma samples were taken at 0, 0.5, 1, 2, 4, 8, 12, and 24 hours after dosing in both Compound HE dose groups.

[4] = 34-day oral dosing in BBZDR rats (obesity and Type II diabetes model): body weight and metabolic parameters; assay type: in vivo; settings: for Adipose Mass / Adipose Mass, percent of placebo response / Core Temperature / Core Temperature, percent of placebo response / Food Consumption / Food Consumption, percent of placebo response / Incidence of Glycosuria (Days) / Incidence of Glycosuria (Days), incidence rate / Psoas Mass / Psoas Mass, percent of placebo response / Water Consumption / Water Consumption, percent of placebo response / Incidence of Diabetes: 34 days; for Incidence of Diabetes: animals
Excerpt: The effects of Compound HE on body weight and metabolism were studied further in the BBZDR rat, a genetic model of obesity and Type II diabetes (Biomedical Research Models, Inc, Worcester, Mass.). BBZDR rats are a cross between the BBDR/W or strain and the fa/fa rat. In BBZDR rats, diabetes occurs in 98% of obese males at an average age of onset of 68±2 days. […] The pancreatic islets of the young obese diabetic males are profoundly enlarged with β cell hyperplasia and mild fibrosis. Studies of pancreatic sections immunostained for insulin and the GLUT-2 glucose transporter reveal focal reduction in β cell insulin content and a generalized reduction in GLUT-2 staining of β cell surface membranes. Lymphocytic insulitis is not detected in either lean or obese rats. In the absence of lymphopenia and autoimmunity, the lean BBZDR rats never become diabetic, and their pancreatic islets are normal in all respects.
Compound HE was administered to male BBZDR rats (48–60 days of age) via oral gavage for a period of 34 days. There were three treatment groups, each with 6 rats/group: a) placebo (1% carboxy methyl cellulose [CMC]), b) Compound HE at 100 mg/kg/day in 1% CMC, and c) Compound HE at 300 mg/kg/day in 1% CMC. The rats were gavaged twice daily for the entire period of the study. Body weight, food intake, fluid intake, and core body temperature were monitored on a daily basis. In addition, the rats were observed twice daily for any gross behavioral/phenotypic changes. Early in the study, two animals in the 300 mg/kg/day-dose group died from trauma secondary to oral gavage (confirmed during necropsy) and were excluded from all analyses.
On Day 21, after an overnight fast, whole blood, serum and plasma samples were collected from anesthetized animals. Prior to the termination of the study, tissue and plasma samples were collected from overnight-fasted animals for histological and biochemical analyses.

[5] = molecular target: ACE-2 (Rattus norvegicus, UniProt Q5EGZ1); experiment: ACE-2 Competitive Substrate Assay, rat ACE-2; assay type: biochemical; settings: Ki class; compounds tested in 5% DMSO, 12 compound concentrations
Sequence of ACE-2 (Rattus norvegicus, UniProt Q5EGZ1) (Q5EGZ1 18-805): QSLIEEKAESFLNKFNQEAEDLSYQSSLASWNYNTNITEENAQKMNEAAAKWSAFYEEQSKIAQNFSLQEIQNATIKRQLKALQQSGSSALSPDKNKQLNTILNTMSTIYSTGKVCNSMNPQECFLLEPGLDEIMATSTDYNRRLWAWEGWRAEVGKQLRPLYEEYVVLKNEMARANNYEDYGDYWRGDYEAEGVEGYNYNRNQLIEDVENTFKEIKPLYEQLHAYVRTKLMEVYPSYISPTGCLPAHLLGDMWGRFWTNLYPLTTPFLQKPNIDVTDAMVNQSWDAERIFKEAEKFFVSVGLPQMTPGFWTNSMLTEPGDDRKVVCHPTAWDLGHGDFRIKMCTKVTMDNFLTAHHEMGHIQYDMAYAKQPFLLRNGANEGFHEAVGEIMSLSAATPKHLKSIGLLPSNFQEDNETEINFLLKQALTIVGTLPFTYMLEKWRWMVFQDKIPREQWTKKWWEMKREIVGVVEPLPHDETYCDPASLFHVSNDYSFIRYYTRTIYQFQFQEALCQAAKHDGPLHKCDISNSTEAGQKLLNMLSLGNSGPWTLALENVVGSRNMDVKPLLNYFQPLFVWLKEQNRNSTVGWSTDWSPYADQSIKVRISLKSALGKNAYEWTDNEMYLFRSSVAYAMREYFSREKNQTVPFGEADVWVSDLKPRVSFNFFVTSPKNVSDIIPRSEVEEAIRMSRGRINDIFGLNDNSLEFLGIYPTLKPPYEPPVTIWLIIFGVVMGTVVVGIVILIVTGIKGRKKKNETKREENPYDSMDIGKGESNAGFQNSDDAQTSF

T1 sequence (Q9BYF1 18-740 limits assumed): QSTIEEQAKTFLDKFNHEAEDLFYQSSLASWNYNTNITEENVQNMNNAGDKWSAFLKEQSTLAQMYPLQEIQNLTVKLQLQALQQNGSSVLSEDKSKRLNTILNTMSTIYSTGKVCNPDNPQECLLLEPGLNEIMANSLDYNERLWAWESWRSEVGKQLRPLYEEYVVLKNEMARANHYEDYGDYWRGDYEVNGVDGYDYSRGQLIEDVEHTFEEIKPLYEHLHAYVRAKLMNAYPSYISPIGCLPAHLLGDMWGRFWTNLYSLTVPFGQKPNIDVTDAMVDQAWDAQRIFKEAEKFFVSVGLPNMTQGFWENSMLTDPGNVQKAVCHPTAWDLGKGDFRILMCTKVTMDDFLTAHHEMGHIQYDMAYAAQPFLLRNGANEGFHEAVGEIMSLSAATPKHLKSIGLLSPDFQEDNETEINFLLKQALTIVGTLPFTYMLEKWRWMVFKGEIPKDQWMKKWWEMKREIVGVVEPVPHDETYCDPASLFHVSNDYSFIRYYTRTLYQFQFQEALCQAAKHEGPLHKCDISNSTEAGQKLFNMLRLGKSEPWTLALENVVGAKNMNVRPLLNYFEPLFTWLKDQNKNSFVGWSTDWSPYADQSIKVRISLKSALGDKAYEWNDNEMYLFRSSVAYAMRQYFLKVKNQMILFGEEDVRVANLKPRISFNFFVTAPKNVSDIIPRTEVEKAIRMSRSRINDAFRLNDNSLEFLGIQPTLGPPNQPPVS

CC(C)CC(N[C@@H](Cc1cncn1Cc1cc(Cl)cc(Cl)c1)C(=O)O)C(=O)O (single isomer, unassigned) [HE, 2-[1-Carboxy-2-[3-(3,5-dichloro-benzyl)-3H-imidazol-4-yl]-ethylamino)4-methyl-pentanoic acid]
Ki ([1]; Ki class, compounds tested in 5% DMSO, 12 compound concentrations, Ki=Kiapp/(1+[S]/Km), read-out: Human ACE-2 Activity): < 100 nM | Ki ([1]; Table 3, very good ACE-2 inhibiting compounds, species not given, read-out: ACE-2 Activity, Ki): < 50 nM | Ki [2]: 10000 to 50000 nM | systemic exposure (plasma levels) [3]: relatively low systemic levels | fluid intake, less than placebo ([4]; 100 mg-treated group): 5% | food intake, less than placebo ([4]; 100 mg-treated group): 5% | Fasted Glucose, Day 34, percent of placebo response ([4]; 100 mg/kg/day oral gavage): (100%) | Fasted Insulin, Day 34 ([4]; 100 mg/kg/day oral gavage): 8.4 ± 7.0 ng/mL | Fasted Insulin, Day 34, percent of placebo response ([4]; 100 mg/kg/day oral gavage): (62%)^a | Fasted Leptin, Day 34 ([4]; 100 mg/kg/day oral gavage): 99 ± 22 ng/mL | Fasted Leptin, Day 34, percent of placebo response ([4]; 100 mg/kg/day oral gavage): (102.7%) | Fasted Total Cholest., Day 34 ([4]; 100 mg/kg/day oral gavage): 117 ± 9 mg/dL | Fasted Total Cholest., Day 34, percent of placebo response ([4]; 100 mg/kg/day oral gavage): (88%) | Total Fasted Triglyc., Day 34 ([4]; 100 mg/kg/day oral gavage): 409 ± 6 mg/dL | Total Fasted Triglyc., Day 34, percent of placebo response ([4]; 100 mg/kg/day oral gavage): (82%) | Weight Gain thru Day 34 ([4]; 100 mg/kg/day oral gavage): 123 ± 3.4 g | Weight Gain thru Day 34, percent of placebo response ([4]; 100 mg/kg/day oral gavage): (83.9%) | Adipose Mass ([4]; 100 mg/kg/day oral gavage): 48.03 ± 1.86 g | Adipose Mass, percent of placebo response ([4]; 100 mg/kg/day oral gavage): (94%) | Core Temperature ([4]; 100 mg/kg/day oral gavage): 98.4 ± 0.13 F. | Core Temperature, percent of placebo response ([4]; 100 mg/kg/day oral gavage): (100%) | Food Consumption ([4]; 100 mg/kg/day oral gavage): 1283 ± 50.3 g | Food Consumption, percent of placebo response ([4]; 100 mg/kg/day oral gavage): (94.4%) | Incidence of Glycosuria (Days) ([4]; 100 mg/kg/day oral gavage): 31/198 | Incidence of Glycosuria (Days), incidence rate ([4]; 100 mg/kg/day oral gavage): (15.7%) | Psoas Mass ([4]; 100 mg/kg/day oral gavage): 1.30 ± 0.09 g | Psoas Mass, percent of placebo response ([4]; 100 mg/kg/day oral gavage): (113%) | Water Consumption ([4]; 100 mg/kg/day oral gavage): 1388 ± 73.5 mL | Water Consumption, percent of placebo response ([4]; 100 mg/kg/day oral gavage): (94.6%) | Incidence of Diabetes ([4]; 100 mg/kg/day oral gavage): 2/6 | fluid intake, less than placebo ([4]; 300 mg-treated group): 15% | food intake, less than placebo ([4]; 300 mg-treated group): 8% | Fasted Glucose, Day 34, percent of placebo response ([4]; 300 mg/kg/day oral gavage): (94%) | Fasted Insulin, Day 34 ([4]; 300 mg/kg/day oral gavage): 7.7 ± 4.1 ng/mL | Fasted Insulin, Day 34, percent of placebo response ([4]; 300 mg/kg/day oral gavage): (57%)^a | Fasted Leptin, Day 34 ([4]; 300 mg/kg/day oral gavage): 92 ± 5.3 ng/mL | Fasted Leptin, Day 34, percent of placebo response ([4]; 300 mg/kg/day oral gavage): (76%) | Fasted Total Cholest., Day 34 ([4]; 300 mg/kg/day oral gavage): 104 ± 5 mg/dL | Fasted Total Cholest., Day 34, percent of placebo response ([4]; 300 mg/kg/day oral gavage): (78%) | Total Fasted Triglyc., Day 34 ([4]; 300 mg/kg/day oral gavage): 414 ± 23 mg/dL | Total Fasted Triglyc., Day 34, percent of placebo response ([4]; 300 mg/kg/day oral gavage): (82%) | Weight Gain thru Day 34 ([4]; 300 mg/kg/day oral gavage): 125 ± 8.3 g | Weight Gain thru Day 34, percent of placebo response ([4]; 300 mg/kg/day oral gavage): (82.5%) | Adipose Mass ([4]; 300 mg/kg/day oral gavage): 48.43 ± 0.55 g | Adipose Mass, percent of placebo response ([4]; 300 mg/kg/day oral gavage): (94%) | Core Temperature ([4]; 300 mg/kg/day oral gavage): 98.4 ± 0.20 F. | Core Temperature, percent of placebo response ([4]; 300 mg/kg/day oral gavage): (100%) | Food Consumption ([4]; 300 mg/kg/day oral gavage): 1249 ± 26.8 g | Food Consumption, percent of placebo response ([4]; 300 mg/kg/day oral gavage): (91.9%) | Incidence of Glycosuria (Days) ([4]; 300 mg/kg/day oral gavage): 12/162 | Incidence of Glycosuria (Days), incidence rate ([4]; 300 mg/kg/day oral gavage): (7.4%) | Psoas Mass ([4]; 300 mg/kg/day oral gavage): 1.21 ± 0.10 g | Psoas Mass, percent of placebo response ([4]; 300 mg/kg/day oral gavage): (105%) | Water Consumption ([4]; 300 mg/kg/day oral gavage): 1271 ± 101.7 mL | Water Consumption, percent of placebo response ([4]; 300 mg/kg/day oral gavage): (86.7%) | Incidence of Diabetes ([4]; 300 mg/kg/day oral gavage): 1/4 | gross or histomorphological adverse effects ([4]; 34 consecutive days of oral dosing): No gross or histomorphological adverse effects | gross abdominal adipose and psoas muscle mass and core body temperature, change between groups ([4]; all three groups): no changes | plasma levels of insulin, total cholesterol and triglycerides compared to placebo ([4]; both dose groups): lower | body weight gain over the 34 days, less than placebo ([4]; both dose groups (100 and 300 mg/kg/day)): approximately 18% | statistical significance of the changes versus placebo ([4]; oral administration for 34 days): not statistically significant | Ki [5]: < 100 nM
